The data set is described as follows: blood pool retention time in rodents, against […]. It is filed as in vivo. The source says:
Retention time in the chart below is reported as the blood pool half life, T 1/2 (minutes) for half of the composition to be depleted from the blood pool.

Data on one molecule can be found in patent US5730968A, “Segmented chelating polymers as imaging and therapeutic agents” (Sterling Winthrop Inc., priority 1994, dated 1998).

For the molecule `CNC[C@H](O)[C@@H](O)[C@H](O)[C@H](O)CO.CNC[C@H](O)[C@@H](O)[C@H](O)[C@H](O)CO.O=C([O-])CN(CCN(CC(=O)[O-])CC(=O)O)CCN(CC(=O)[O-])CC(=O)O.[Gd+3]` [Magnevist], the “Blood Pool T1/2 (blood pool half life, for half of the composition to be depleted from the blood pool)” value is 12 min.
